According to ChEMBL document CHEMBL4184288, “Marine bis-γ-pyrone polypropionates of onchidione family and their effects on the XBP1 gene expression” (Bioorg Med Chem Lett, 2018):
The source made the active and inactive calls. No cut-off for these calls is given here.

Assays:
Mus musculus [1] = species: Mus musculus; test: Activation of XBP1 mRNA splicing in tunicamycin-stimulated mouse B16F10 cells harboring XBP1-DBD-luc treated 24 hrs post tunicamycin measured after 8 hrs by luciferase reporter gene assay relative to control
Mus musculus [2] = species: Mus musculus; test: Activation of XBP1 mRNA splicing in tunicamycin-stimulated mouse B16F10 cells harboring XBP1-DBD-luc at 10 ug/ml treated 24 hrs post tunicamycin measured after 8 hrs by luciferase reporter gene assay relative to control
Mus musculus [3] = species: Mus musculus; test: Activation of XBP1 mRNA splicing in tunicamycin-stimulated mouse B16F10 cells harboring XBP1-DBD-luc at 1 ug/ml after 8 hrs by luciferase reporter gene assay relative to control

Row | Structure (SMILES) | Activity (Mus musculus [1]) | Activity (Mus musculus [2]) | fold change (FC) (Mus musculus [2]) | Activity (Mus musculus [3])
1 | CCC(=O)O[C@@H](CC)[C@H](C)c1oc([C@H](C)[C@@H]2O[C@](O)([C@@H](C)c3oc(CC)c(C)c(=O)c3C)[C@@H](C)[C@@H](OC(=O)CC(C)C)[C@@H]2C)c(C)c(=O)c1C | inactive |  |  | 
2 | CCC(=O)[C@@H](C)c1oc([C@H](C)[C@@H]2O[C@](O)([C@@H](C)c3oc(CC)c(C)c(=O)c3C)[C@@H](C)[C@@H](OC(=O)CC(C)C)[C@@H]2C)c(C)c(=O)c1C |  | 218% | 2 | 
3 | CCc1oc([C@H](C)[C@@]2(O)O[C@@H]([C@@H](C)c3oc([C@@H](C)[C@H](CC)OC(C)=O)c(C)c(=O)c3C)[C@@H](C)[C@H](OC(=O)CC(C)C)[C@@H]2C)c(C)c(=O)c1C |  | 234% | 2 | 
4 | CCCCCCCCCCCCC/C=C/C(=O)N[C@H]1[C@H](O[C@H]2O[C@H](CO)[C@@H](O)[C@H](O)[C@H]2NC(C)=O)O[C@H](CC(O)[C@H]2O[C@@H](n3ccc(=O)[nH]c3=O)[C@H](O)[C@@H]2O)[C@H](O)[C@@H]1O (some centres undefined) |  |  |  | 178%

Continued, in another order:

Row | Activity (Mus musculus [1]) | Activity (Mus musculus [2]) | fold change (FC) (Mus musculus [2]) | Structure (SMILES) | Activity (Mus musculus [3])
5 |  | 210% | 2 | CCC(=O)[C@H](C)c1oc([C@H](C)[C@@H]2O[C@](O)([C@@H](C)c3oc(CC)c(C)c(=O)c3C)[C@@H](C)[C@@H](OC(=O)CC(C)C)[C@@H]2C)c(C)c(=O)c1C | 
6 | inactive |  |  | CCc1oc([C@H](C)[C@@]2(O)O[C@@H]([C@@H](C)c3oc([C@@H](C)[C@@H](O)CC)c(C)c(=O)c3C)[C@@H](C)[C@H](OC(=O)CC(C)C)[C@@H]2C)c(C)c(=O)c1C | 
